17 molecules from ChEMBL document CHEMBL4002613, “Shape-based virtual screening, synthesis and evaluation of novel pyrrolone derivatives as antiviral agents against HCV” (Bioorg Med Chem Lett, 2017) can be followed below.

The subject of one data set is Hepatitis C virus. In words: Antiviral activity against Hepatitis C virus genotype 1b infected in human HuH5.2 cells after 72 hrs by luciferase reporter gene assay. The class given is functional, cell-based, Hepacivirus hominis. On the technique in general: A reporter such as luciferase makes a cellular process visible.
A short description of data set [1]: (§1) Cytotoxicity against human HuH5.2 cells assessed as anti-metabolic effect after 72 hrs by MTT assay. The class given is ADME, cell-based, Huh-5-2. As to conditions: HuH5.2 (Huh-5-2) cells. A general note: Tetrazolium assays rely on reduction of a dye to a coloured formazan, in cell work by metabolically active cells.
Data set [2] is described as follows: Selectivity index, ratio of CC50 for human HuH5.2 cells to EC50 for Hepatitis C virus genotype 1b infected in human HuH5.2 cells. The data set is classed as toxicity, cell-based. The following applies: for selectivity ratio: HuH5.2 cells, read-out: Ratio CC50/EC50.
A short description of data set [3]: Inhibition of Hepatitis C virus genotype 1b NS3 helicase unwinding activity using fluorescent DNA substrate by molecular beacon assay. The arrangement: species or system Hepatitis C virus subtype 1b.
Another data set relates to Huh-5-2. The description is as §1. The data set is classed as ADME, cell-based. As to conditions: huh-5-2, 72 h, 72 h.
Data set [4] in a line: Inhibition of Hepatitis C virus genotype 1b Con1 NS3 helicase ATP hydrolysis activity using ATP as substrate in presence of poly U RNA. The arrangement: species or system Hepatitis C virus (isolate Con1).
Where [5] appears, read: Hepatitis C virus, genotype 1b, Huh-5-2, 72 h.

`O=C1/C(=C\c2ccc(-c3ccccc3)cc2)C=C(c2ccccc2)N1c1ccccc1`: in the data set with Hepatitis C virus (setting [5]), the half-maximal effective concentration (EC50) (in general, the concentration that produces a half-maximal response) was determined as 16.1 µM and the 90% effect level (EC90) was put at 61.7 µM. Also, the CC50 (as a rule, the concentration at which the toxic effect on the cells reaches its halfway point) at 72 h in data set [1] was 156 µM. In addition, the selectivity ratio in data set [2] came out at 9.7. Moreover, in data set [3], the IC50 (as a rule, the concentration that gives 50% inhibition) was greater than 1000 µM.

For `O=C1/C(=C\c2ccccc2)C=C(c2ccccc2)N1c1ccccc1`, in the data set with Hepatitis C virus (setting [5]), it took 4.7 µM to reach a half-maximal effect (EC50) and the EC90 (usually the concentration needed for an effect of 90%) was 14 µM. Also, the CC50 at 72 h in data set [1] amounted to 30.3 µM. Besides, the selectivity ratio in data set [2] came to 6.4. This molecule registered an IC50 in data set [3] greater than 1000 µM.

With `O=C(O)C1=CC(=C(c2ccc(O)c(C(=O)O)c2)c2ccc(O)c(C(=O)O)c2)C=CC1=O` [AURINTRICARBOXYLIC ACID], half-maximal inhibition in data set [3] (IC50) required 0.3 µM.

Consider `CN1CCN(Cc2c3c(c(CN4CCN(C)CC4)c4c2CCC4)CCC3)CC1`, for which the EC50 in the data set with Hepatitis C virus (setting [5]) was determined as 7.7 µM. Besides, the CC50 at 72 h in data set [1] was 36.9 µM. In data set [2], the selectivity ratio was found to be 4.8.

In the data set on Hepatitis C virus, `CCOC(=O)c1ccc(/C=C2\C=C(c3ccccc3)N(c3ccc(C)cc3Br)C2=O)cc1` (stereo in doubt; form 2) had a 50% effective concentration (EC50) of 20.3 µM and an EC90 of 61.7 µM. Moreover, in the data set on Huh-5-2, the half-maximal cytotoxic concentration (CC50) is greater than 205 µM. Besides, the “Ratio CC50/EC50” value in data set [2] is reported as greater than 10. Further, the IC50 in data set [3] is greater than 1000 µM.

As for `CN1CCN(CC2=C(O)C(=O)N(CCc3ccccc3)C3C=CC=CN23)CC1` (configuration not stated), in the data set with Hepatitis C virus (setting [5]), the EC50 is 235 µM and the EC90 was greater than 264 µM. In addition, the 50% cytotoxic concentration (CC50) at 72 h in data set [1] is greater than 264 µM.

With `CCOC(=O)c1ccc(/C=C2/C=C(c3ccccc3)N(c3ccc(C)cc3)C2=O)cc1`, in the data set with Hepatitis C virus (setting [5]), the midpoint of the response, the EC50, lay at 22.5 µM and it took 81.1 µM to reach the 90% level (EC90). In addition, the CC50 at 72 h in data set [1] was greater than 244 µM. The selectivity ratio in data set [2] was greater than 11. Further, in data set [3], the 50% inhibitory concentration (IC50) was greater than 1000 µM.

Regarding `CCOC(=O)c1ccc(/C=C2/C=C(c3ccccc3)N(c3ccccc3)C2=O)cc1`, in the data set with Hepatitis C virus (setting [5]), the midpoint of the response, the EC50, lay at 27.2 µM and it took 100 µM to reach the 90% level (EC90). Moreover, the half-maximal cytotoxic concentration (CC50) at 72 h in data set [1] worked out at 112 µM. Further, in data set [2], the selectivity ratio worked out at 4. This molecule gave an IC50 in data set [3] greater than 1000 µM.

`Oc1c(CN2CCOCC2)cc(CN2CCOCC2)cc1CN1CCOCC1`: in the data set with Hepatitis C virus (setting [5]), the EC50 is greater than 255 µM and the 90% effect concentration (EC90) is greater than 255 µM. Also, in data set [1], the half-maximal cytotoxic concentration (CC50) at 72 h was greater than 255 µM.

Molecule `CCOC(=O)c1ccc(/C=C2\C=C(c3ccccc3)N(c3ccc(C)cc3Br)C2=O)cc1` (stereo in doubt; form 1) showed an EC90 in the data set on Hepatitis C virus of 149 µM. In addition, the EC50 in the data set on Hepatitis C virus (setting [5]) fell in the range of 38 to 38.3 µM. For the same molecule, in data set [1], the cytotoxic concentration (CC50) at 72 h lay within 204 to 205 µM.

Consider `CCOC(=O)c1ccc(/C=C2/C=C(c3ccccc3)N(c3ccc(C)cc3C)C2=O)cc1`, for which the concentration giving a half-maximal response (EC50) in the data set with Hepatitis C virus (setting [5]) was in the range of 0.8 to 43.1 µM. Further, in data set [1], the CC50 at 72 h fell in the range of 47 to 90.8 µM. Also, in data set [2], the selectivity ratio lay in the range of 2.1 to 58.8. The molecule further came in with a half-maximal inhibitory concentration (IC50) in data set [3] greater than 1000 µM.

In the data set on Hepatitis C virus (setting [5]), `O=C1/C(=C\c2ccc(Br)cc2)C=C(c2ccccc2)N1c1ccccc1` returned a 50% effective concentration (EC50) of 4.3 µM and an EC90 of 11.6 µM. Moreover, the CC50 at 72 h in data set [1] is 25.7 µM. Also, in data set [2], the selectivity ratio came out at 6. In data set [3], this molecule returned a half-maximal inhibitory concentration (IC50) greater than 1000 µM.

In the data set with Hepatitis C virus (setting [5]), `COc1ccc(/C=C2/C=C(c3ccccc3)N(c3ccccc3)C2=O)cc1` returned an EC50 of 5.9 µM and an EC90 of 21.6 µM. For the same molecule, in data set [1], the 50% cytotoxic concentration (CC50) at 72 h amounted to 97.2 µM. In addition, the selectivity ratio in data set [2] came out at 18. Inhibition in data set [3] was half-maximal at 438 µM (IC50).

For `Cc1ccc(N2C(=O)/C(=C\c3ccccc3)C=C2c2ccccc2)c(Br)c1`, in the data set on Hepatitis C virus (setting [5]), the response was half-maximal at 4.1 µM (EC50) and it took 12.4 µM to reach the 90% level (EC90). The 50% cytotoxic concentration (CC50) at 72 h in data set [1] was greater than 240 µM. Further, the selectivity ratio in data set [2] is greater than 58. Besides, the IC50 in data set [3] was greater than 1000 µM. Besides, in data set [4], the half-maximal inhibitory concentration (IC50) worked out at 620 µM.

`Cc1ccc2nc(-c3ccc4nc(-c5ccc(N)cc5)sc4c3)sc2c1S(=O)(=O)O` displayed an IC50 in data set [3] of 10 µM.

In the data set with Hepatitis C virus (setting [5]), `N=c1c(S(=O)(=O)c2ccc(Cl)cc2)cc2c(=O)n3ccccc3nc2n1CCN1CCOCC1` came in with a concentration for a half-maximal effect (EC50) of 28 µM and a 90% effect concentration (EC90) of 97.6 µM. In data set [1], the CC50 at 72 h came to 151 µM. The selectivity ratio in data set [2] came to 5.4.

In the data set on Hepatitis C virus (setting [5]), `CN(C)c1ccc(/C=C2\C(=O)N(c3ncc(-c4ccc(Cl)cc4)s3)N=C2c2ccccc2)cc1` displayed a concentration for a half-maximal effect (EC50) of 147 µM and an EC90 greater than 206 µM. In data set [1], the cytotoxic concentration (CC50) at 72 h was greater than 206 µM. Moreover, the selectivity ratio in data set [2] was greater than 1.4.
